Assay results as given in ChEMBL document CHEMBL1201862, “PubChem BioAssay data set” (2004).
The source made the active and inactive calls.

Legend:
[1] = target: Transitional endoplasmic reticulum ATPase (Homo sapiens, UniProt P55072, C522A); experiment: C522A mutant p97 ATPase inhibitors, dose response, counter-screen for p97 inhibitor project, biochemical, luminescence (AID 1544)
[2] = target: T1, Replicative DNA helicase DnaB (Mycobacterium tuberculosis, UniProt P9WMR3); experiment: DnaB intein splicing inhibitors, dose response, biochemical, cell-free fluorescence (AID 449749); type: functional
T1 sequence (P9WMR3 whole entry): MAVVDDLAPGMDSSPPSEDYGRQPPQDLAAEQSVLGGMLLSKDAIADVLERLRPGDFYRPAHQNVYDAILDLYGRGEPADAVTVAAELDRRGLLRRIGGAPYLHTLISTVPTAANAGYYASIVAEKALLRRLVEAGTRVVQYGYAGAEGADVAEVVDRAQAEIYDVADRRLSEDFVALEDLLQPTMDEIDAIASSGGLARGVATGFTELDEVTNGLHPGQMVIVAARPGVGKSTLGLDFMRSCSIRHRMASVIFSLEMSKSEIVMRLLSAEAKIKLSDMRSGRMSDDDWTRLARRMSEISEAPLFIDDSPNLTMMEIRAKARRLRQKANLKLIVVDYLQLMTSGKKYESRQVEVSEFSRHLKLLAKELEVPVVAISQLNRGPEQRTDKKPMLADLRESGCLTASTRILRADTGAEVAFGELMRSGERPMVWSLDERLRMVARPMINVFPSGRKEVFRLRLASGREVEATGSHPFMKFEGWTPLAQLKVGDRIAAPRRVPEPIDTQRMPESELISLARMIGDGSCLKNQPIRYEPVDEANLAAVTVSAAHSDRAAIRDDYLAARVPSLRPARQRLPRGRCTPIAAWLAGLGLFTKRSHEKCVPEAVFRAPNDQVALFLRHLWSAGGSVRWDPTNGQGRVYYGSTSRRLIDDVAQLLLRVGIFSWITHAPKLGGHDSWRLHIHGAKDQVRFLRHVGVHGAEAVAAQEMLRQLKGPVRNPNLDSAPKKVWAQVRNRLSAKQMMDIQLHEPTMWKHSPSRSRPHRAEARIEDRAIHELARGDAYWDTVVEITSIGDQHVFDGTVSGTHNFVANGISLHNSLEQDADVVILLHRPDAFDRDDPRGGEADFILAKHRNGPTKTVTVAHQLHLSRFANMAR

[3] = target: T2, Protein RecA (Mycobacterium tuberculosis, UniProt P9WHJ3); experiment: Fluorescence Cell-Free Homogeneous Dose Retest to Identify Inhibitors of RecA-Intein Splicing Activity. [Related pubchem assays (depositor defined):AID2097, AID2223, AID489010, AID492950]; type: functional
T2 sequence (P9WHJ3 whole entry): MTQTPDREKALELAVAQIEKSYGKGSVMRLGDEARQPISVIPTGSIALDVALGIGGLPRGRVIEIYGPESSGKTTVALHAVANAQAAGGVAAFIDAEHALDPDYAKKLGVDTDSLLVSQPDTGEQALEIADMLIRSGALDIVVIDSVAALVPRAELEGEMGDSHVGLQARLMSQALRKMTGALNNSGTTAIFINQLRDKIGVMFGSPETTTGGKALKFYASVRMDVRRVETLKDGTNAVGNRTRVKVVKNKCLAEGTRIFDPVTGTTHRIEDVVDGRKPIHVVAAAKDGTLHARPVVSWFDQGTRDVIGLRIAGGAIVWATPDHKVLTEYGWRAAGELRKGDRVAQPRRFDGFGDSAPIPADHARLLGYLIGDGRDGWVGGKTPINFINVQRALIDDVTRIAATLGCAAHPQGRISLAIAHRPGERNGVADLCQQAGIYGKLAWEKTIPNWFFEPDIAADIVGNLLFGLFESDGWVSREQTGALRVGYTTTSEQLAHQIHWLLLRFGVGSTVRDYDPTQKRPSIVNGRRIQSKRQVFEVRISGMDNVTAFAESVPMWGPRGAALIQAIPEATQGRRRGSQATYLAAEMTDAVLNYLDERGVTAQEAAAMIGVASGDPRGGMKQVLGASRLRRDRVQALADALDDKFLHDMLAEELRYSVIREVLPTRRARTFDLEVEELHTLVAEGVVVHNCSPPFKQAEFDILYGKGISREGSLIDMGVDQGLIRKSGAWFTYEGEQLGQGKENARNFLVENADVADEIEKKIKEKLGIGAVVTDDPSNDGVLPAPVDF

[4] = target: T3, Methionyl-tRNA synthetase, putative (Trypanosoma brucei brucei, UniProt Q38C91); type: functional, Trypanosoma brucei brucei strain 927/4 GUTat10.1
T3 sequence (Q38C91 whole entry): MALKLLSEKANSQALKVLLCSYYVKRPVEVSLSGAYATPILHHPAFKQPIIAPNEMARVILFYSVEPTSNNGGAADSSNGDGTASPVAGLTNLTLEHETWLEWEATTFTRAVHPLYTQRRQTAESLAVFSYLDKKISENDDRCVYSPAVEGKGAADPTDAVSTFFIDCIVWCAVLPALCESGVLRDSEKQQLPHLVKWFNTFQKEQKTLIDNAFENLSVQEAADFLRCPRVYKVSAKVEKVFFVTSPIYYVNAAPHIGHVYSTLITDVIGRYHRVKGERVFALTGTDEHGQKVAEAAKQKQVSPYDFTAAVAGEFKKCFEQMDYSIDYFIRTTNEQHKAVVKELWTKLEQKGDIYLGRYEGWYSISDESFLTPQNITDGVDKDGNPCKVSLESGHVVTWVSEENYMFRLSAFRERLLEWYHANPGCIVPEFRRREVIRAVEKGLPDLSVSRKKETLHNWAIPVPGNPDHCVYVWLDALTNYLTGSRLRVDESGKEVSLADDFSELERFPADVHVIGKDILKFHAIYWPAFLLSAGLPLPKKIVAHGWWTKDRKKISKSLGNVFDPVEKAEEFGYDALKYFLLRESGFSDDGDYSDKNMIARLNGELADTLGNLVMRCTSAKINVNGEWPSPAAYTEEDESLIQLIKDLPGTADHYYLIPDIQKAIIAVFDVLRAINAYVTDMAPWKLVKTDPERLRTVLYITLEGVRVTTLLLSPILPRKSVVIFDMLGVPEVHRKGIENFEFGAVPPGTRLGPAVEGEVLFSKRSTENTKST

[5] = target: Tyrosyl-DNA phosphodiesterase 2 (Homo sapiens, UniProt O95551); experiment: potency against TDP2 phosphodiesterase activity – biochemical, epi absorbance, IC50, dose response (AID 743297)
[6] = target: T4, Heat shock factor protein 1 (Mus musculus, UniProt P38532); experiment: enhancement of HSF1-driven luciferase signal – cell-based, NIH3T3, luminescence, dose retest, confirmation (AID 435004); type: functional;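 further: stress induced by proteasome inhibitor MG132 added 30 min after compound; luciferase reporter driven by HSF1 response element in NIH3T3 cells; actives raise luminescence as potentiators of the MG132 stress response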
T4 sequence (P38532 whole entry): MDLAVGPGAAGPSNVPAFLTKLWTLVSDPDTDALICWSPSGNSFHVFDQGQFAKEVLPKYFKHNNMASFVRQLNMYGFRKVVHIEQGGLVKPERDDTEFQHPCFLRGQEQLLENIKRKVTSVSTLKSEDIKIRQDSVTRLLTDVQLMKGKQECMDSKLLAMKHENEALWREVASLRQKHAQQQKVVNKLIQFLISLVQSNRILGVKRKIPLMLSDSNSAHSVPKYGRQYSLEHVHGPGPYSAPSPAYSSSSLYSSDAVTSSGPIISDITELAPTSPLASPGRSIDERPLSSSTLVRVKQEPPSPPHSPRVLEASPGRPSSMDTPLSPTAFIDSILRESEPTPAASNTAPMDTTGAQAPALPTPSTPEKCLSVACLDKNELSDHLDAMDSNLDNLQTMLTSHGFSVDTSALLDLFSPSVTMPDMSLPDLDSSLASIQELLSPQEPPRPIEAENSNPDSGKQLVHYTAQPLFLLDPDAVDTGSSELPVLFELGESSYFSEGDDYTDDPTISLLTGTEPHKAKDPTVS

[7] = target: Transitional endoplasmic reticulum ATPase (Homo sapiens, UniProt P55072); experiment: p97 ATPase inhibitors, dose response, biochemical (AID 1534)
[8] = target: T3, Methionyl-tRNA synthetase, putative; type: functional, Trypanosoma brucei brucei strain 927/4 GUTat10.1; remark: listed apart in the source
[9] = target: E3 ubiquitin-protein ligase UHRF1 (Homo sapiens, UniProt Q96T88); experiment: Counterscreen for inhibitors of 5-meCpG-binding domain protein 2 (MBD2): TRFRET-based biochemical high throughput dose response assay to identify inhibitors of binding of ubiquitin-like with PHD and ring finger domains 1 (UHRF1) to methylated oligonucleotide.
[10] = Counterscreen for inhibitors of Trypanosoma brucei methionyl tRNA synthetase (MetRS): Luminescence-based cell-based high throughput dose response assay to identify compounds that are cytotoxic to Jurkat human T lymphocyte cells.; type: functional
[11] = target: Ras and Rab interactor 1/Tyrosine-protein kinase ABL1 (Homo sapiens, UniProt P00519+Q13671); type: functional;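 further: biochemical TR-FRET dose-response test measuring inhibition of binding between Rin1 and Abl proteins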
[12] = target: Polyadenylate-binding protein 1 (Homo sapiens, UniProt P11940); experiment: blockers of PABP interaction with poly(A) – biochemical, fluorescence polarization, […] (AID 2014)
[13] = target: Eukaryotic translation initiation factor 4H (Homo sapiens, UniProt Q15056); experiment: eIF4H binding inhibition – biochemical, uHTS, fluorescence polarization, translation initiation inhibitor project, primary screen (AID 2012)
[14] = target: Aspartyl aminopeptidase (Plasmodium falciparum 3D7, UniProt Q8I2J3)
[15] = target: Procathepsin L (Homo sapiens, UniProt P07711)
[16] = target: Peroxisome proliferator-activated receptor gamma/Nuclear receptor corepressor 2 (Homo sapiens, UniProt P37231+Q9Y618); type: functional
[17] = target: T5, Photoreceptor-specific nuclear receptor (Homo sapiens, UniProt Q9Y5X4); type: functional
[18] = target: Signal transducer and activator of transcription 3 (Homo sapiens, UniProt P40763); experiment: STAT3 activation with BCL3 mRNA and toxicity – cell-based, […], BCL3 qPCR, cytotoxicity, late-stage follow-up, panel member STAT3 Activation (AID 2049)
[19] = target: G2/mitotic-specific cyclin-B1 (Homo sapiens, UniProt P14635); experiment: HeLa cell cycle G2/M accumulation – FACS, mechanism study for Wee1 degradation inhibitor project, late-stage follow-up, panel member Cyclin B Degradation (AID 2088)
[20] = target: T5, Photoreceptor-specific nuclear receptor; type: functional, cell-based
[21] = viability loss in HEK293T cells – cell-based, cherry-picks, cytotoxicity control for HIV Vif inhibitor project, dose response (AID 652208); type: functional
[22] = target: Wee1-like protein kinase (Homo sapiens, UniProt P30291); experiment: HeLa cell cycle G2/M accumulation – FACS, mechanism study for Wee1 degradation inhibitor project, late-stage follow-up, panel member Wee1 Degradation (AID 2088)

T5 sequence (Q9Y5X4 whole entry): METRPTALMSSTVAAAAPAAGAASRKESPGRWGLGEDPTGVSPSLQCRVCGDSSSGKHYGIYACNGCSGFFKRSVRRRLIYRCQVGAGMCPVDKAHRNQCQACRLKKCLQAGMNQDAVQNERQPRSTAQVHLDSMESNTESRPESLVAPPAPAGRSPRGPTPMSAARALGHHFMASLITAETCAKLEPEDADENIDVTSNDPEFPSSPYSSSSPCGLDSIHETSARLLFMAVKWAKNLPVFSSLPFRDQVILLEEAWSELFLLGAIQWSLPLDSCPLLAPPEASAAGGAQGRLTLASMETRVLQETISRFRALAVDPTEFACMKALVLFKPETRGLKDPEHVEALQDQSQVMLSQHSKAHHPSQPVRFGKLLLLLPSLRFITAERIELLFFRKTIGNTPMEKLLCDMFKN
Signal transducer and activator of transcription 3, sequence (P40763 whole entry): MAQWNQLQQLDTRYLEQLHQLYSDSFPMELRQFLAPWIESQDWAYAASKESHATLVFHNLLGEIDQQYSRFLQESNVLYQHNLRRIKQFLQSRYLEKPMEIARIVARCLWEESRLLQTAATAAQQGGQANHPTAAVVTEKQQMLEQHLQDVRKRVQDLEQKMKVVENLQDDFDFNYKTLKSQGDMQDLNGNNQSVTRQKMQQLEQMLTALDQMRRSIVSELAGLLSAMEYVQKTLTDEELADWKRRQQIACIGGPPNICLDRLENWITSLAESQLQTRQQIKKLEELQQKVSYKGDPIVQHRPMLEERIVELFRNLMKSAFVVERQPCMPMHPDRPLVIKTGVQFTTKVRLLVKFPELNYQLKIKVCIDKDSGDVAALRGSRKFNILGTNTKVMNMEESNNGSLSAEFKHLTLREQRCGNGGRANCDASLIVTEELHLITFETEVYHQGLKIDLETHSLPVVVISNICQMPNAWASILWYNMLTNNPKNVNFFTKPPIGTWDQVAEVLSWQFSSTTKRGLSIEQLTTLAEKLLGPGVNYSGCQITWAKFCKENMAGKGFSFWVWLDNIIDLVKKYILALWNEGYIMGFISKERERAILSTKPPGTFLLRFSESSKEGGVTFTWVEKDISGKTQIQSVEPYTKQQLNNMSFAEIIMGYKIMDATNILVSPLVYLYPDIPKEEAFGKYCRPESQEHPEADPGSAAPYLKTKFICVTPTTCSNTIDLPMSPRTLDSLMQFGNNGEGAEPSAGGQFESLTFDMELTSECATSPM
E3 ubiquitin-protein ligase UHRF1, sequence (Q96T88 whole entry, the tested form may be a part): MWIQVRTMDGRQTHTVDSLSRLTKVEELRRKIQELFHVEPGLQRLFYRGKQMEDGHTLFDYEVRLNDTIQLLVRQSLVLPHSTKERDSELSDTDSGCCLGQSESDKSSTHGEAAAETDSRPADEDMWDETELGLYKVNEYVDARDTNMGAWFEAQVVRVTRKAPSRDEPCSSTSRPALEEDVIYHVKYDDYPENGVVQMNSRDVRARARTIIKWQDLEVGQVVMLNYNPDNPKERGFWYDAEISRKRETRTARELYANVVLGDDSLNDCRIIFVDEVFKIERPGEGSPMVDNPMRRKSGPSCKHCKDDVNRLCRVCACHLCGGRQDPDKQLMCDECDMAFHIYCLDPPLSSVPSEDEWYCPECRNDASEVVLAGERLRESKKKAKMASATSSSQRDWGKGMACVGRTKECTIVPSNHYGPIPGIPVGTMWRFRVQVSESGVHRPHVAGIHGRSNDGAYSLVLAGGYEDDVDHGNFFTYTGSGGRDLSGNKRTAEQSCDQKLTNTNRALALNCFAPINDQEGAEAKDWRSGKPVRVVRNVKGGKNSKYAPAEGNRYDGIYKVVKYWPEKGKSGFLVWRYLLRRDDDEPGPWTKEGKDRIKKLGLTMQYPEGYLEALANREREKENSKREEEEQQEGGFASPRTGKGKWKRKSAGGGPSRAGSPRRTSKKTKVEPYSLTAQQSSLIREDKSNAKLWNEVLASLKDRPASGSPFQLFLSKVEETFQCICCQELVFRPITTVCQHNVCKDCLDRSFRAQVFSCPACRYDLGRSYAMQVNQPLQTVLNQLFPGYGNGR
Peroxisome proliferator-activated receptor gamma/Nuclear receptor corepressor 2, sequence (P37231 whole entry): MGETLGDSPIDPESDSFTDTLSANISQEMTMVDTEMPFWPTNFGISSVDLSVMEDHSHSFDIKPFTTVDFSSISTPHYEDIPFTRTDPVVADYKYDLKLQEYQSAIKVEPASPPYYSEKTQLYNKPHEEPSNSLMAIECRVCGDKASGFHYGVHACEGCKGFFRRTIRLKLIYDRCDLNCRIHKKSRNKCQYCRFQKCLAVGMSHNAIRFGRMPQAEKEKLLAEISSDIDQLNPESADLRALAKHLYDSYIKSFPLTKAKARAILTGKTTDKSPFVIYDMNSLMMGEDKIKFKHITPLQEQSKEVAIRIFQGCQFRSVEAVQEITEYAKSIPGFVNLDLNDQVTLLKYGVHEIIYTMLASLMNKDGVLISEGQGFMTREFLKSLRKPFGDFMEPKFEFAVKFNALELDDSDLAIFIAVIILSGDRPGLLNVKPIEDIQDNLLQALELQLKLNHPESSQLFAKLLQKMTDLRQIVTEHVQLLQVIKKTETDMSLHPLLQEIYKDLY
Peroxisome proliferator-activated receptor gamma/Nuclear receptor corepressor 2, sequence (Q9Y618 whole entry): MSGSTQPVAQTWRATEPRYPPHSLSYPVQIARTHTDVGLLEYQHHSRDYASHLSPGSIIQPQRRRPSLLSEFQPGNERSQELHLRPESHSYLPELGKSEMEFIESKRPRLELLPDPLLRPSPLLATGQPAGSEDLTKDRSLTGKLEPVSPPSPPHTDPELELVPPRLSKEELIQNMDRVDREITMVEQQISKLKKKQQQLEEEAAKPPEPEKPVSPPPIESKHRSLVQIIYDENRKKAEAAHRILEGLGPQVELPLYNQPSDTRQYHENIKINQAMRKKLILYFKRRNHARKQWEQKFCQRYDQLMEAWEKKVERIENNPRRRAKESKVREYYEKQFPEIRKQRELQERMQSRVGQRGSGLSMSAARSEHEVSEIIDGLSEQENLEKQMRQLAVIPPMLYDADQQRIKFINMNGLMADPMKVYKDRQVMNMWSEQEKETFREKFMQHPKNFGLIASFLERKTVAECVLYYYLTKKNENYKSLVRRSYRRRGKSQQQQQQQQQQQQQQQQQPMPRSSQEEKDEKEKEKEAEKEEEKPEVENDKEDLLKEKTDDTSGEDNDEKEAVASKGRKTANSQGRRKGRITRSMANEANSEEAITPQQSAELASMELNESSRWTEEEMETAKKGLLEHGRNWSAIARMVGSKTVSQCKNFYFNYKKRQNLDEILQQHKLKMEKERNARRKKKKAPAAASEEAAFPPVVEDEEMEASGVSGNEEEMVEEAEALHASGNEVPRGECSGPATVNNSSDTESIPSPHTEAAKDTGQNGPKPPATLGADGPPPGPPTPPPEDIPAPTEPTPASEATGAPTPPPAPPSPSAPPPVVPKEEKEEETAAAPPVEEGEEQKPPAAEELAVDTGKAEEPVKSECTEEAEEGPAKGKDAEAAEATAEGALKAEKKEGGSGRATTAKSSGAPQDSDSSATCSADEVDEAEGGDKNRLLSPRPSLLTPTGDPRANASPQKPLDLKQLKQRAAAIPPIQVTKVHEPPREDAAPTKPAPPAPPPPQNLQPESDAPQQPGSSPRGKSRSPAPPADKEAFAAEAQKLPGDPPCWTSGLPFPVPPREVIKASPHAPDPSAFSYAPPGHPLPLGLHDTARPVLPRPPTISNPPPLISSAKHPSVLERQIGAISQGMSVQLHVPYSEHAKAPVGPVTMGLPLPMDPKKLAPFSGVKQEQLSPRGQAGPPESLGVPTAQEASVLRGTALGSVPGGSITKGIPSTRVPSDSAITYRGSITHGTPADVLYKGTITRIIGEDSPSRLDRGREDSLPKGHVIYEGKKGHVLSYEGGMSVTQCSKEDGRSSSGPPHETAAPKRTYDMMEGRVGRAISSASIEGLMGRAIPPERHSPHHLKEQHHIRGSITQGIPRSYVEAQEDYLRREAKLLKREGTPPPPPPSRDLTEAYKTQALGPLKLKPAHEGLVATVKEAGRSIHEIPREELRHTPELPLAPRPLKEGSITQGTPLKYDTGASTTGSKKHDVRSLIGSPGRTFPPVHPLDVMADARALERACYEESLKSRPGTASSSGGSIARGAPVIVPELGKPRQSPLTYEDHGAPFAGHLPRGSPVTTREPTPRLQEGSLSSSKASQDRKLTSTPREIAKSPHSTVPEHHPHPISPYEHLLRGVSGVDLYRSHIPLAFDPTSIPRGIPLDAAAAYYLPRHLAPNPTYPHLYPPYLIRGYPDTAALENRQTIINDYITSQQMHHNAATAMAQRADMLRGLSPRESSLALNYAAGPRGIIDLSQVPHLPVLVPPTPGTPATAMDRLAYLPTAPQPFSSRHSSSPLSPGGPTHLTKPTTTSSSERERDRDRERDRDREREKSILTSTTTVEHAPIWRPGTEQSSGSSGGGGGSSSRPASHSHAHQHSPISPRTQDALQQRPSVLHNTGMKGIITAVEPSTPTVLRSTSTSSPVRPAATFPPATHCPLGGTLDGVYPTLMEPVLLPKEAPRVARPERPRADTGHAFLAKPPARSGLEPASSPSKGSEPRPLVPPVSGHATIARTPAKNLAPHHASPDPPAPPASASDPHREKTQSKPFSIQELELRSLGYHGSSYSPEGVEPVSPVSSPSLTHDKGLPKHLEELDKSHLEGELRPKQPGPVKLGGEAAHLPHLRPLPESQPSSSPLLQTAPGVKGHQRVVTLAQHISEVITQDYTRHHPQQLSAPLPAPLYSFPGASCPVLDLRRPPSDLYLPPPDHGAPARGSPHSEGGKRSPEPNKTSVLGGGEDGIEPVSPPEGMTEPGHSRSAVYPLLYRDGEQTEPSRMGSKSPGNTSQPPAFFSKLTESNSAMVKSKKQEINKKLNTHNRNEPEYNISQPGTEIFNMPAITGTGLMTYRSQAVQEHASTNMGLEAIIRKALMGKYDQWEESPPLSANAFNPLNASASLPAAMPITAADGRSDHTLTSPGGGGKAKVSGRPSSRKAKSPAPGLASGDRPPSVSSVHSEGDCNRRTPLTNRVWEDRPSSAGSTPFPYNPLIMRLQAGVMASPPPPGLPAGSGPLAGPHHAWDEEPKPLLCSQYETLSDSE

O=S(=O)(Nc1cc2nc3ccccc3nc2n1Cc1ccccc1)c1ccc(Cl)cc1
IC50 [1]: > 50 µM (not active) | AC50 [2]: 10.1 µM (active) | EC50 [3]: 1.5 µM (active) | IC50 [4]: 4.93 µM (active) | IC50 [5]: > 14.3 µM (inactive) | EC50 [6]: > 260 µM (inactive) | IC50 [7]: > 50 µM (not active) | IC50 [8]: 2.46 µM (active) | IC50 [9]: > 43.8 µM (inactive) | IC50 [10]: 28.8 µM (inactive) | IC50 [11]: > 73.5 µM (inactive)

CCN(CC)CCCN=C1N[C@@H](c2ccccc2)C(C(=O)OC)=C(C)N1CC
IC50 [12]: 10.6 µM (active) | IC50 [13]: > 100 µM (inactive)

O=C(NC(=S)Nn1cnnc1)c1ccccc1Br
IC50 [14]: 1.5 µM (active) | IC50 [15]: > 59.6 µM (not active)

O=C(C1=C(O)C(=O)N(CC2CCCO2)C1c1ccc(Cl)cc1Cl)c1ccco1 (configuration not stated)
IC50 [16]: 13.7 µM (not active) | IC50 [17]: > 39.8 µM (not active)

COc1cc(OC)c(NC(=O)c2cc(CN3CCCC3)on2)cc1Cl
EC50 [18]: > 55.7 µM (inactive)

Cc1ccnc(NC(=O)CCCOc2cc(=O)n(C)c3ccccc23)c1
EC50 [19]: > 55.7 µM (inactive) | IC50 [20]: 2.97 µM (active) | AC50 [21]: > 52 µM (inactive) | EC50 [22]: > 6.19 µM (active)
